Measurements from paper PMC11061149, “Protein mimetic 2D FAST rescues alpha synuclein aggregation mediated early and post disease Parkinson’s phenotypes” (Nature Communications, 2024).
“And” between values parts separate entries of the source, which are not always exact repeats. Identical values can stand only once.

System: UA196 worms
Experiment: Motility assay of UA196 worms in the presence of dopamine and NS163
Assay type: in vivo, C. elegans
Settings: for Motility of worms, UA196+Dopamine: individual trials
Procedure: This motility assay was performed exactly as the previous assay with slight adjustment in the preparation of the plates for the treatment of UA196 worms. For this assay, the only difference is the 24 well plates were prepared with 2 mM dopamine (referred to as PLATE 5) and both 2 mM dopamine and 50 µM NS163 (referred to as PLATE 6). To prepare PLATE 5, the NGM media containing 75 µM FUDR was autoclaved and poured in NGM plates (2 mL total liquid). After 12 h, the NGM plates were seeded with 350 µL of OP50 (with OD = 0.5 at 600 nm) at 20 °C. After 12 h, 2 mM dopamine dissolved in M9 buffer (total volume = 300 µL) was spotted atop the NGM plates at 20 °C. To prepare PLATE 6, the NGM media containing 75 µM FUDR was autoclaved and poured in NGM plates (2 mL total liquid). After 12 h, the NGM plates were seeded with 350 µL of OP50 (with OD = 0.5 at 600 nm) at 20 °C. After 12 h, NS163 (50 µM, stock conc. = […] in DMSO) and dopamine (2 mM in M9 buffer) were dissolved in M9 buffer (total volume = 300 µL) and were spotted atop the NGM plates at 20 °C. The NGM plates treated with dopamine and NS163 and dopamine were placed in sterile laminar flow hood at 20 °C for 1 h. The NGM plates treated with dopamine and NS163 and dopamine were prepared and used within 24 h.
There were six conditions for this experiment: (1) N2 worms, (2) N2 worms treated with 2 mM dopamine, (3) UA196 worms, (4) UA196 worms treated with 2 mM dopamine, (5) UA196 worms treated with 50 µM NS163, and (6) UA196 worms treated with 2 mM dopamine and 50 µM NS163. For each condition, four biological replicates were performed, and each biological replicate consisted of four technical replicates (four wells). For each condition, the data were expressed as mean and the error bars report the s.e.m. (n = 4 independent experiments and each n consisted of a total of four technical replicates).

`NCCc1ccc(O)c(O)c1` [dopamine] was tested, and the “Motility of worms, UA196+Dopamine” value (Day 4) was 146 and 123 and 134 and 157, the “Motility of worms, UA196+Dopamine” value (Day 5) was 129 and 128 and 126 and 106 and the “Motility of worms, UA196+Dopamine” value (Day 6) was 99 and 108 and 117 and 122. The “Motility of worms, UA196+Dopamine” value (Day 7) was 108 and 102 and 112 and 99, the “Motility of worms, UA196+Dopamine” value (Day 8) was 108 and 103 and 97 and 100 and the “Motility of worms, UA196+Dopamine” value (Day 9) was 93 and 88 and 92 and 89. The “Motility of worms, UA196+Dopamine” value (Day 10) was 87 and 88 and 92 and 89, the “Motility of worms, UA196+Dopamine” value (Day 11) was 75 and 62 and 83 and 87 and the “Motility of worms, UA196+Dopamine” value (Day 12) was 72 and 83 and 69 and 65. For the same molecule, the “Motility of worms, UA196+Dopamine” value (Day 13) was 51 and 78 and 67 and 62 and the “motility of UA196 worms treated with dopamine, in words” value (dopamine 2 mM, day two and four) was “much higher motility”.
